Data on one compound can be found in US20230017785A1, “COMPANION DIAGNOSTICS FOR COMPLEMENT INHIBITORS” (THE JOHNS HOPKINS UNIVERSITY, priority 2019, published 2023).

Experiment [1] has as its system C5b-9 deposition on PIGA null TF-1 cells. Put plainly: Flow cytometry for C5b-9 deposition. The experiment is classed as cell-based, human. As to conditions: for Inhibition of C5b-9 deposition induced by APS patient sera: APS patient sera on PIGA null TF-1 cells; for Inhibition of C5b-9 deposition induced by CAPS sera: CAPS patient sera (e.g. CAPS5); for Inhibition of C5b-9 deposition induced by patient-derived IgG anti-β2GPI antibody: anti-β2GPI from thrombotic APS patient APS21 added to normal human serum. As for the experimental part:
Patient derived anti-β2GPI antibodies. Anti-β2GPI antibodies from two patients were affinity purified using a column of Affigel HZ to which purified human β2GPI was coupled (Bio-Rad Laboratories, Hercules, Calif.), as previously described.^43 IgG purity was assessed by reduced SDS-PAGE. Complement activation (C5b-9 deposition and complement dependent cell killing in mHam) induced by patient-derived anti-β2GPI antibodies was tested by adding patient-derived anti-β2GPI antibodies to normal human serum (Cat. NHS, Complement Technology, Inc.).
Flow cytometry for C5b-9 deposition. Flow cytometry was performed to evaluate cell surface deposition of C5b-9 deposition on PIGA null TF1 cells. Cells were seeded in V-bottom 96-well plates (1.2×10^5 cells/well) either in GVB^0.MgEGTA (pH 6.4) buffer for alternative pathway activation or GVB++ (pH 7.4) buffer for classical pathway activation followed by addition of APS patient serum (or patient-derived aPL added to normal human serum). The reaction was incubated for 15 min at 37° C., and stopped by adding FACS buffer/EDTA. Cell pellets were separated by centrifugation at 1900 rpm for 3 minutes at room temperature and then stained with Alexa 488 conjugated anti-C3c antibody (Cat. 4212, Abcam, dilution at 1:100) and […] monoclonal primary antibody (Cat. 66768, Abcam, dilution at 1:100), followed by Alexa 647 conjugated secondary antibody. C5b-9 deposition was measured by a BD FACSCalibur. Ten thousand events were recorded per sample and analyzed using FlowJo software version 10.5.3 (FlowJo Inc). Normal human serum was used as a negative control for flow cytometry assays. We also evaluated the effect of adding anti-C5 mAb and ACH-4471 on C5b-9 deposition.

The subject of experiment [2] is PIGA null TF-1 cells. Description: Modified Ham (mHam) assay, complement-dependent cell killing. The format is cell-based, human. As to conditions: anti-C5 mAb 10 μg, ACH-4471 0.33 μM; for Inhibition of cell killing in the mHam induced by APS sera: APS patient sera; for Inhibition of mHam cell killing induced by CAPS sera: CAPS patient sera.
The test system of experiment [3] is PIGA null TF-1 cells. As to conditions: previously demonstrated (ref. 46); cited from earlier work.

Molecules are shown by their SMILES. “Also recorded” adds a separate entry of the source.

As for `CC(=O)c1nn(CC(=O)N2C[C@H](F)C[C@H]2C(=O)Nc2cccc(Br)n2)c2ccc(-c3cnc(C)nc3)cc12` [ACH-4471], the “Inhibition of C5b-9 deposition induced by APS patient sera” value in experiment [1] was “less so”; in experiment [1] (listed as ACH4471), “did not appreciably inhibit; also recorded: did not prevent”. The “Inhibition of C5b-9 deposition induced by CAPS sera” value in experiment [1] is listed as “partially blocked; also recorded: partially inhibited”; in experiment [1] (listed as ACH4471), “partially”. Also, in experiment [1] (aHUS patient PS-18 sera), the “Inhibition of C5b-9 deposition induced by aHUS patient sera” value is given as “completely inhibited”. Besides, the results for the “Inhibition of C5b-9 deposition induced by patient-derived IgG anti-β2GPI antibody” value in experiment [1] and in experiment [1] (listed as factor D inhibitor) were “partially” and “minimally inhibited”, respectively. For the same compound, the “Inhibition of cell killing in the mHam induced by APS sera” value is on record as “less so” in the experiment with PIGA null TF-1 cells [2] and “did not prevent cell killing” with PIGA null TF-1 cells [2] (listed as ACH4471). For the same compound, the results for the “Inhibition of mHam cell killing induced by CAPS sera” value in the experiment on PIGA null TF-1 cells [2] and with PIGA null TF-1 cells [2] (listed as factor D inhibitor) were “partially blocked; also recorded: partially inhibited” and “attenuated”, respectively. Moreover, the “Blocking complement dependent killing in the mHam with aHUS serum” value in the experiment on PIGA null TF-1 cells [3] is “highly effective in blocking”.
